The results in this text go back to patent publication EP4700022A1, “CYP11A1 INHIBITORS AND USE THEREOF” (Xizang Haisco Pharmaceutical Co., Ltd., priority 2023, dated 2024).

The test system of data set [1] is testosterone level in NCI-H295R cells. Briefly: cells. In kind it is cell-based. Conditions: Homo sapiens, 72 h; for inhibition at 0.1 µM: read-out: Testosterone level in H295R (Elisa) inh.% 100 nM; for inhibition at 1 µM: read-out: Testosterone level in H295R (Elisa) inh.% 1000 nM; for IC50: read-out: IC50/nM. Here is the method: 1. The purpose of the experimental study was intended to detect the testosterone level in the NCI-H295R cells by adopting the Enzyme linked immunosorbent assay (ELISA), so as to evaluate the inhibitory effects of the compounds on the testosterone level in the NCI-H295R cells. The H295R cells were purchased from ATCC, the cell complete medium contained DMEM: F12+ 10% FBS +0.00625 mg/ml insulin +0.00625 mg/ml transferrin+6.25 ng/ml selenium +1.25 mg/ml BSA+0.00535 mg/ml linoleic acid, and the cells were cultured in a 37°C, 5% CO2 incubator. The cells in the exponential growth phase were collected, and cultured in a cytokine-free medium (phenol red 1640-free +1% PS+10% css FBS+1.25 mg/ml BSA +0.00625 mg/ml insulin + 0.00625 mg/ml transferrin+6.25 ng/ml selenium+0.00535 mg/ml linoleic acid) for 3 days. The cells in the exponential growth phase were collected on the third day. The cell suspension was adjusted with a cytokine-free medium to a corresponding concentration and plated at 60000 cells/well, with the volume being 90 µL/well. Subsequently, 10 µL of the compounds at different concentrations was added and the plate was incubated in a CO2 incubator for 3 days. After the incubation was completed, according to the operation instructions for testosterone Elisa kit (Beyotime, PT872), 50 µL of the cell culture supernatant was collected from each well and centrifuged at 500 g for 5 min at room temperature and then the resulting supernatant was collected. The samples were added to the corresponding wells at 25 µl/well, and then formulated horseradish peroxidase labeled testosterone was added at 75 µl/well. The mixture was fully mixed for 10 seconds. The reaction wells were sealed with a plate-sealing film (white) and the mixture was incubated at room temperature in the dark for 120 min. The plate was washed 3 times with a volume of 300 µl per well, and then placed onto thick absorbent paper and dried. Chromogenic reagent TMB solution was added at 100 µl/well. The reaction wells were sealed with a plate-sealing film (white) and the mixture was incubated at room temperature in the dark for 15-20 min. Subsequently, a termination solution was added at 50 µl/well, and after the mixture was fully mixed, the absorbance value OD450 was immediately measured. The absorbance readings were processed using Graphpad Prim 8.0 software and S-shaped concentration curves were plotted and the IC50 values were calculated using a four-parameter non-linear regression model. The results were processed according to formula (1), the inhibition rate of the compound at different concentrations was calculated, and the IC50 value of the compound with an inhibition rate of 50% was calculated using Graphpad Prim 8.0 software, wherein RLU compound was the readout of the treated group, and RLU control was the average value of the solvent control group. Inhibition rate% = 100-RLUcompound /RLUcontrol × 100 [formula] Table 1. Inhibitory activity on testosterone level in NCI-H295R cells

The nature of data set [2]: Pharmacokinetic test in rats. Type of data set: in vivo. Conditions: rat, male SD rats, plasma; for Vd: read-out: Vdss. Here is the method: 3.1 Experimental animals: Male SD rats (about 220 g, 6-8 weeks old, 6 rats/compound), purchased from Chengdu Dossy Experimental Animals Co., Ltd.
3.2 Experimental design: On the day of the experiment, the SD rats were randomly grouped by body weight. […] Table 3. Administration information
Before and after the administration, 0.1 ml of blood was taken from the orbit of the animals under isoflurane anesthesia and placed in an EDTAK2 centrifuge tube. The blood was centrifuged at 5000 rpm and 4°C for 10 min to collect plasma. […] Before analysis and detection, all samples were stored at -80°C. Table 4. Pharmacokinetic parameters of test compounds in plasma of rats

[3] abbreviates: po, intragastric administration (10 mg/kg).
Where [4] appears, read: intravenous administration (2.5 mg/kg).

Take `CS(=O)(=O)N1CCC(COc2ccc(CN3Cc4ccccc4C3)c3cccnc23)CC1` [Compound 4]: in data set [1], the inhibition at 0.1 µM was 81.5% and the inhibition at 1 µM stood at 89.2%.
For `CS(=O)(=O)N1CCC(CCOc2cc(CN3Cc4ccccc4C3)ccn2)CC1` [Compound 10], in data set [1], the IC50 was found to be 81.9 nM and the inhibition at 1 µM stood at 85.4%.
`CS(=O)(=O)N1CCC(CCn2ccc(CN3Cc4ccc(C5CC5)cc4C3)cc2=O)CC1` [Compound 16]: in data set [1], the inhibition at 0.1 µM was 51.7% and the inhibition at 1 µM is 89.4%.
For `CS(=O)(=O)N1CCC(c2cc3oc(CN4Cc5ccc(C(F)(F)F)cc5C4)cc(=O)c3o2)CC1` [Compound 30], in data set [1], the IC50 was determined as 35.3 nM, the inhibition at 0.1 µM stood at 59.1% and the inhibition at 1 µM was found to be 80.9%.
Consider `O=C(OC1CC1)N1CCC(COc2ccc(CN3Cc4ccc(C(F)(F)F)cc4C3)c3ccc(F)nc23)CC1` [Compound 36], for which, in data set [1], the inhibition at 0.1 µM is 56.8% and the inhibition at 1 µM was 62%.
In the same order, the values of `CS(=O)(=O)N1CC(OC(=O)N2CCC(COc3ccc(CN4Cc5ccc(C(F)(F)F)cc5C4)c4c3OCCO4)CC2)C1` [Compound 37] are 87.1% and 77%.
On the same counts, the results for `CS(=O)(=O)N1CC(OC(=O)N2CCC(COc3ccc(CN4Cc5ccc(C(F)(F)F)cc5C4)c4c3S(=O)(=O)CC4)CC2)C1` [Compound 39] are 55.8% and 74.6%.
As usually defined, the AUC(0-t) is the area under the concentration-time curve up to a stated or last time point. The term half-life denotes the time in which the quantity being followed falls by half. The term clearance denotes a measure of how efficiently the substance is removed, as volume per time. Higher therefore signals efficient removal. As for `O=C(OC1CC1)N1CCC(CCOc2cc(CN3Cc4ccc(C(F)(F)F)cc4C3)ccn2)CC1` [Compound 40], the IC50 in data set [1] is 77 nM. Moreover, in data set [2] (setting [3]), the AUC(0-t) was 4210 ng·h/mL and the half-life was 11.1 h. In data set [2] (setting [4]), the AUC(0-t) stood at 1950 ng·h/mL, the clearance turned out to be 19.1 mL/min/kg, the half-life was 9.77 h and the Vd turned out to be 9.21 L/kg.
Consider `CS(=O)(=O)N1CC(OC(=O)N2CCC(CCOc3cc(CN4Cc5ccsc5C4)ccn3)CC2)C1` [Compound 41], for which, in data set [1], the inhibition at 0.1 µM was found to be 51.5% and the inhibition at 1 µM is 67.9%.
In the same order, the values of `O=C(OC1CC1)N1CCC(Cc2cc3oc(CN4Cc5ccc(C(F)(F)F)cc5C4)cc(=O)c3o2)CC1` [Compound 42] are 76.9% and 82.6%.
On the same counts, the results for `O=C(OC1CC1)N1CCC(/C=C/c2coc(CN3Cc4cc5c(cc4C3)CCC5)cc2=O)CC1` [Compound 43] are 75.6% and 77.8%.
On the same counts, the results for `O=C(OC1CC1)N1CCC2(CC1)CC(Oc1cc(CN3Cc4ccc(C(F)(F)F)cc4C3)ccn1)C2` [Compound 48] are 77.5% and 78.2%.
Take `CS(=O)(=O)N1CC(OC(=O)N2CCC(CCOc3cc(CN4Cc5ccc(C(F)(F)F)cc5C4)ccn3)CC2)C1` [Compound 49]: in data set [1], the inhibition at 0.1 µM amounted to 57.7% and the inhibition at 1 µM is 65.2%.
Turning to `O=C(N[C@H]1CC[C@H](CCOc2cc(CN3Cc4ccc(C(F)(F)F)cc4C3)ccn2)CC1)OC1CC1` [Compound 51], in data set [1], the inhibition at 0.1 µM stood at 74.4% and the inhibition at 1 µM was 78.5%. In data set [2] (setting [3]), this molecule showed an exposure AUC(0-t) of 13600 ng·h/mL and a half-life of 9.63 h. In data set [2] (setting [4]), the AUC(0-t) came out at 4000 ng·h/mL, the clearance came out at 9.32 mL/min/kg, the half-life was 8.52 h and the Vd stood at 4.58 L/kg.
Take `N#Cc1cc(CN2Cc3ccc(C(F)(F)F)cc3C2)cc2cc(C3CCN(C(=O)OC4CC4)CC3)oc12` [Compound 53]: in data set [1], the inhibition at 0.1 µM was 72.5% and the inhibition at 1 µM was 85.5%. In data set [2] (setting [3]), this molecule showed an area under the curve AUC(0-t) of 6750 ng·h/mL and a half-life of 8.13 h. In data set [2] (setting [4]), the AUC(0-t) was determined as 3110 ng·h/mL, the clearance was 11 mL/min/kg, the half-life was 13.2 h and the Vd came to 8.06 L/kg.
Consider `COc1cc(CN2Cc3ccc(C(F)(F)F)cc3C2)cc2cc(C3CCN(C(=O)OC4CC4)CC3)oc12` [Compound 54], for which, in data set [1], the inhibition at 0.1 µM amounted to 59.1% and the inhibition at 1 µM worked out at 78.4%. Moreover, in data set [2] (setting [3]), the AUC(0-t) is 5840 ng·h/mL and the half-life was 7.74 h. In data set [2] (setting [4]), the AUC(0-t) amounted to 3560 ng·h/mL, the clearance was determined as 10.3 mL/min/kg, the half-life was 10.3 h and the Vd worked out at 6.41 L/kg.
As for `O=C(OC1CC1)N1CCC(CCOc2ccnc(CN3Cc4ccc(C(F)(F)F)cc4C3)c2)CC1` [Compound 59], in data set [1], the inhibition at 0.1 µM was found to be 60% and the inhibition at 1 µM came to 76%.
In data set [2] (setting [3]), `O=C(N[C@H]1CC[C@H](CCOc2cc(CN3Cc4ccc(C5CC5)cc4C3)ccn2)CC1)C1CC1` [Compound 60] had an AUC(0-t) of 27100 ng·h/mL and a half-life of 2.36 h. Also, in data set [2] (setting [4]), the AUC(0-t) came out at 6080 ng·h/mL, the clearance came to 6.8 mL/min/kg, the half-life was 1.75 h and the Vd was found to be 0.951 L/kg.
Consider `O=C(N[C@H]1CC[C@H](Cc2cc3oc(CN4Cc5ccc(C(F)(F)F)cc5C4)cc(=O)c3o2)CC1)C1CC1` [Compound 66], for which, in data set [1], the inhibition at 0.1 µM was 54.8% and the inhibition at 1 µM was determined as 76.7%.
On the same counts, the results for `[2H]C([2H])([2H])C(=O)N[C@H]1CC[C@H](Cc2cc3oc(CN4Cc5ccc(C(F)(F)F)cc5C4)cc(=O)c3o2)CC1` [Compound 67] are 52% and 72%.
Regarding `N#Cc1cc(CN2Cc3ccc(C(F)(F)F)cc3C2)cc2cc([C@H]3CC[C@H](NC(=O)C4CC4)CC3)oc12` [Compound 69], in data set [1], the inhibition at 0.1 µM amounted to 79% and the inhibition at 1 µM stood at 80%.
Regarding `O=C(N[C@H]1CC[C@H](CCOc2cc(CN3Cc4ccc(C(F)(F)F)cc4C3)ccn2)CC1)[C@H]1CC1(F)F` [Compound 70], in data set [1], the inhibition at 0.1 µM worked out at 68.9% and the inhibition at 1 µM came to 76.3%.
As to `O=C(N[C@H]1CC[C@H](c2cc3oc(CN4Cc5ccc(C(F)(F)F)cc5C4)cc(=O)c3o2)CC1)C1CC(F)(F)C1` [Compound 72], in data set [1], the inhibition at 0.1 µM is 81% and the inhibition at 1 µM amounted to 88%.
Turning to `COc1nc(CN2Cc3ccc(C(F)(F)F)cc3C2)ccc1OCC1CCN(C(=O)C2CC(F)(F)C2)CC1` [Compound 75], in data set [1], the inhibition at 0.1 µM turned out to be 76.2% and the inhibition at 1 µM is 90.4%.
In the same order, the values of `O=C(CC(F)(F)F)N[C@H]1CC[C@H](CCOc2cc(CN3Cc4ccc(C(F)(F)F)cc4C3)ccn2)CC1` [Compound 76] are 70% and 78%.
Consider `CS(=O)(=O)N1CCC(C2=COc3cc(CN4Cc5ccc(C(F)(F)F)cc5C4)ccc3O2)CC1` [Compound 84], for which, in data set [1], the IC50 was determined as 38 nM, the inhibition at 0.1 µM was 74% and the inhibition at 1 µM was determined as 83%.
